Data published in patent US12215085B2 (priority 2019, dated 2025).

System: rats with common carotid artery occlusion-induced vascular dementia
Test: Water maze test, common carotid artery occlusion-induced vascular dementia rats
Type: in vivo, rat
Conditions: succinate; for time for reaching the platform / orientation angle for reaching the platform / speed for reaching the platform / swimming path length for reaching the platform: x ± s; for Average speed / Number of crossing the platform / Orientation angle / Swimming path length in the platform area/total swimming path length × 100% / Time in the platform area / Time in the platform quadrants: Day 7
Text: A rat blood vessel dementia model was made according to the references [ZHAO Xian-lin, FANG Xiu-bin, LI Dong-pei. Establishment of Vascular Dementia Model in Rats, J Chin Med Univ, 2002, 31 (3): 166-168; WANG Yong-yan, Zhang Bo-li, Editor-in-chief. Modern Chinese Medicine Clinic and Research on Vascular Dementia, People's Medical Publishing House, October 2003, First Version 214]: Chloral hydrate 0.4 g/kg was intraperitoneally injected for anesthetizing rats, and bilateral common carotid arteries were isolated and ligated. The animals were fed for 16 weeks, divided into groups on the last 7 days, and administered. The normal control group and the model group were administrated through the intragastric route with distilled water by 0.5 ml/100 g, the positive control group was administrated through the intragastric route with donepezil hydrochloride by 1.75 mg/kg (equivalent to 3.85 times the clinical daily dosage of 5 mg/70 kg), the low, medium and high-dose groups of Crystal Form A of octahydroaminoacridine succinate were administrated through the intragastric route with Crystal Form A of octahydroaminoacridine succinate by 0.7, 1.4 and 2.8 mg/kg (equivalent to 0.96, 1.92 and 3.85 times the clinical daily dosage of 8 mg/70 kg). The water maze test and the step-down test were carried out after continuous administration for 7 days, and the administration was continued during the test period. The water maze test was continuously performed for 7 days, in the first 6 days, in four different water entry points of quadrants 1, 2, 3 and 4, the time, the swimming path length, the orientation angle and the average speed of the rat reaching the platform were measured, meanwhile, the strategy for reaching the platform adopted by rats was observed, on the 7th day, the platform was removed, the number of rats crossing the platform in 2 minutes, the residence time in the platform area, the residence time in the platform quadrants, the percentage of the swimming path length in the platform area quadrants to the total swimming path length, the average speed and the orientation angle were measured. After the water maze test was finished, the step-down test was performed, and the number of electric shocks (or called as the error number) received by each rat within 5 minutes was recorded as the learning performance. The test was performed again after 24 hours, namely, the memory retention test, and the latent period for stepping-down the platform for the first time and the error number in five minutes were recorded. After the step-down test was finished, the brain was taken quickly for pathological examination, and the pathological changes of the hippocampus and the cortex were observed.

[1] = Day 4, 1.4 mg/kg intragastric, 1.4 mg/kg
[2] = Day 4, 2.8 mg/kg intragastric, 2.8 mg/kg
[3] = Day 5, 0.7 mg/kg intragastric, 0.7 mg/kg
[4] = Day 5, 1.4 mg/kg intragastric, 1.4 mg/kg
[5] = Day 5, 2.8 mg/kg intragastric, 2.8 mg/kg
[6] = Day 6, 0.7 mg/kg intragastric, 0.7 mg/kg
[7] = Day 6, 1.4 mg/kg intragastric, 1.4 mg/kg
[8] = Day 6, 2.8 mg/kg intragastric, 2.8 mg/kg
[9] = 0.7 mg/kg intragastric, 0.7 mg/kg
[10] = 1.4 mg/kg intragastric, 1.4 mg/kg
[11] = 2.8 mg/kg intragastric, 2.8 mg/kg

Q: What does the source list for `Nc1c2c(nc3c1CCCC3)CCCC2.O=C(O)CCC(=O)O` [Crystal Form K, 9-amino-1,2,3,4,5,6,7,8-octahydroacridine succinate]?
A: time for reaching the platform (Day 4, 0.7 mg/kg intragastric, 0.7 mg/kg): 40.55 ± 16.73 s; adopted strategy for reaching the platform (the peripheral type and the random type %) [1]: 68.00%; orientation angle for reaching the platform [1]: 53.49 ± 14.67 °; speed for reaching the platform [1]: 20.28 ± 6.02 cm/s; swimming path length for reaching the platform [1]: 752.34 ± 467.22 cm; time for reaching the platform [1]: 39.57 ± 18.69 s; adopted strategy for reaching the platform (the peripheral type and the random type %) [2]: 62.50%; orientation angle for reaching the platform [2]: 50.35 ± 15.5 °; speed for reaching the platform [2]: 21.00 ± 5.91 cm/s; swimming path length for reaching the platform [2]: 703.47 ± 231.68 cm; time for reaching the platform [2]: 37.88 ± 17.67 s; adopted strategy for reaching the platform (the peripheral type and the random type %) [3]: 72.50%; orientation angle for reaching the platform [3]: 53.56 ± 14.56 °; speed for reaching the platform [3]: 21.42 ± 7.22 cm/s; swimming path length for reaching the platform [3]: 664.56 ± 562.88 cm; time for reaching the platform [3]: 31.42 ± 17.35 s; adopted strategy for reaching the platform (the peripheral type and the random type %) [4]: 62.00%; orientation angle for reaching the platform [4]: 52.76 ± 19.40 °; speed for reaching the platform [4]: 21.26 ± 8.46 cm/s; swimming path length for reaching the platform [4]: 689.43 ± 267.98 cm; time for reaching the platform [4]: 34.62 ± 12.48 s; adopted strategy for reaching the platform (the peripheral type and the random type %) [5]: 58.50%; orientation angle for reaching the platform [5]: 53.49 ± 23.42 °; speed for reaching the platform [5]: 22.93 ± 6.31 cm/s; swimming path length for reaching the platform [5]: 642.45 ± 386.45 cm; time for reaching the platform [5]: 28.41 ± 8.73 s; adopted strategy for reaching the platform (the peripheral type and the random type %) [6]: 70.00%; orientation angle for reaching the platform [6]: 50.39 ± 22.30 °; speed for reaching the platform [6]: 19.52 ± 14.27 cm/s; swimming path length for reaching the platform [6]: 523.46 ± 237.12 cm; time for reaching the platform [6]: 32.45 ± 21.25 s; adopted strategy for reaching the platform (the peripheral type and the random type %) [7]: 66.50%; orientation angle for reaching the platform [7]: 50.34 ± 20.04 °; speed for reaching the platform [7]: 22.54 ± 9.36 cm/s; swimming path length for reaching the platform [7]: 531.55 ± 169.37 cm; time for reaching the platform [7]: 28.21 ± 15.63 s; adopted strategy for reaching the platform (the peripheral type and the random type %) [8]: 54.00%; orientation angle for reaching the platform [8]: 46.37 ± 26.8 °; speed for reaching the platform [8]: 21.32 ± 7.46 cm/s; swimming path length for reaching the platform [8]: 502.78 ± 482.65 cm; time for reaching the platform [8]: 29.10 ± 17.83 s; Average speed [9]: 23.62 ± 8.38 cm/s; Number of crossing the platform [9]: 5.67 ± 3.45; Orientation angle [9]: 27.88 ± 6.57 °; Swimming path length in the platform area/total swimming path length × 100% [9]: 26.88 ± 7.36%; Time in the platform area [9]: 2.87 ± 2.14 s; Time in the platform quadrants [9]: 35.61 ± 10.91 s; Average speed [10]: 24.69 ± 5.76 cm/s; Number of crossing the platform [10]: 7.25 ± 2.45; Orientation angle [10]: 24.69 ± 8.21 °; Swimming path length in the platform area/total swimming path length × 100% [10]: 28.74 ± 8.90%; Time in the platform area [10]: 2.18 ± 2.34 s; Time in the platform quadrants [10]: 37.88 ± 12.37 s; Average speed [11]: 25.45 ± 6.98 cm/s; Number of crossing the platform [11]: 7.49 ± 3.51; Orientation angle [11]: 23.57 ± 4.76 °; Swimming path length in the platform area/total swimming path length × 100% [11]: 27.39 ± 10.42%; Time in the platform area [11]: 2.56 ± 3.27 s; Time in the platform quadrants [11]: 34.52 ± 15.82 s
